What was measured:
Boll Weevils [1] = experiment: Competitive field test with released weevils, four trap array; assay type: in vivo, Anthonomus grandis; settings: 1.0 mg of the compound
Text: The second series of experiments involved an array of four traps. […] The two treatments being tested simultaneously in this competitive arrangement were placed alternately in the traps, i.e., the two traps baited with the same treatment were located diagonally from each other. Odorants diluted in hexane were released from glass capillaries placed in small vials in a container in each trap. […] Traps were then immediately baited. In each test, traps were checked and insects were removed at 1530 hrs and 1700 hrs on the day of release, and before 0900 hrs the next day (the time at which the test was terminated) in order to remove those insects which might have responded prior to darkness on the day of release.

[2] = test system: Single Olfactory Cells Responsive to Volatiles Emanating from a Crushed Cotton Square; experiment: Single-cell electrophysiology: action potentials from single olfactory cells; assay type: cell-based, Anthonomus grandis; settings: volatiles emanating from 1 μg of odorant; cell responsive to crushed cotton square
Text: Single-cell recording techniques are described in detail elswhere [Dickens, Mitt. Schweiz. Entomol. Ges. 52: 203 (1979); Dickens et al., J. Chem. Ecol. 10: 583 (1984)]. In brief, microelectrodes used for recordings were constructed from 50.8 μm diameter tungsten wire electrolytically sharpened to a tip of 1-2 μm. The recording electrode was positioned under optical control (150-200 X) with a Leitz high-power micromanipulator near either the base of one of the three sensory bands encircling the club, or the base of an individual sensillum just distal to each sensory band region. The ground electrode was inserted in either the rostrum or distal end of the scape. Action potentials were amplified and conditioned by a Grass P-15 preamplifier and Tektronix 5A22N amplifier prior to visualization on a Tektronix 5223 digitizing oscilloscope. The signal then passed through a Teac R51-D data recorder for recording on cassette tapes prior to visualization on a Tektronix 5111 analog oscilloscope. Data were photographed from the analog oscilloscope with a Tektronix C-5C oscilloscope camera. Trains of action potentials were counted visually.
Upon obtaining a single cell preparation, odorous stimuli were presented every 3 min. […] The first two stimuli tested were volatiles emanating from 1 μg of grandlure, followed by volatiles emanating from a crushed cotton square. These two stimuli served to determine whether the cell was activated by the attractive pheromone of the boll weevil and/or volatiles emanating from its food source.

Boll Weevils [3] = experiment: Competitive field test with released weevils, triangular trap array; assay type: in vivo, Anthonomus grandis; settings: for Mean Trap Capture: three replicates; for activity alone in competition with the other treatments: triangular array, 100 mg alone
Experimental: Two series of field tests were performed involving released boll weevils, in which grandlure was placed in competition with grandlure + the synergist. In the first series of experiments, a triangular array of traps was used. One trap was placed at each corner of a 20 m equilateral triangle (total of three traps). The three treatments released in this triangular array of traps were: 1) grandlure 3 mg; 2) grandlure 3 mg+synergist 100 mg; and 3) synergist 100 mg. The three synergists tested in these experiments were: trans-2-hexen-1-ol, 1-hexanol, and cis-3-hexen-1-ol. Cigarette filters were used to release the experimental odorants. One hundred insets (50 males and 50 females) were released along a line 20 m from each side of the triangle (300 insects total) at ca. 1000 hrs prior to baiting of the traps at 1200 hrs. Traps were check and insects were removed at 1400 hrs, 1600 hrs, and 1800 hrs, the times at which the test was terminated.

Scolytus multistriatus = experiment: Field test with bark beetles, 4-wk, Orono, Me.; assay type: in vivo
Experimental: Mean % trap captures were calculated from competitive field tests during a 4-wk test period on campus of the University of Maine, Orono, Me. Total number of S. multistriatus captured was 423. Multilure consisted of α-multistriatin, methyl heptanol, and cubebene as obtained commercially from Dewill Corp., Elmhurst, Ill. Both 1-hexanol and hexanal were released from cigarette filters after dilution in the […] described [McKibben, supra]. Mean weekly trap captures were compared by Duncan's multiple range test [Duncan, Biometrics 11: 1-42 (1955)].

female C. capitata = experiment: Wind tunnel assay with female Mediterranean fruit flies; assay type: in vivo, Ceratitis capitata; settings: laboratory flight tunnel
Experimental: Flies were assayed in a rectangular glass wind tunnel (90 cm×90 cm×280 cm; flow rate=20 cm/sec) using laboratory-reared 5- to 7-day-old female C. capitata. The odor from 100 male C. capitata (30-50% calling) was obtained, and split through “Teflon” tubing to a secondary container containing the green leaf odor [either 100 μL of a 0.05% mixture in paraffin oil of trans-2-hexen-1-ol, 1-hexanol, cis-3-hexen-1-ol, trans-2-hexenal, and hexanal at a ratio of 158:100:63:24:11 (=glv, green leaf volatiles); or 100 μL of a 10% solution in silicon oil of trans-2-hexenal alone]. The odors were released into the wind tunnel via “Teflon” tubing to […] yellow plastic spheres [McInnis, J. Econ. Entomol. (in press)] with multiple holes to allow odors to emanate. Fifty flies were released 200 cm downwind from the source spheres, and both the number of flies on the spheres at a given time, and total number of landings by the flies were recorded during a 30-min test period. The test with the green leaf volatile blend was replicated five times; the test with trans-2-hexenal was replicated six times.

[4] = Gas chromatographic analyses of the aldehyde released in the field; settings: field conditions in which it was released
[5] = grandlure 3 mg vs 1-hexanol 100 mg vs both
[6] = grandlure 3 mg vs cis-3-hexen-1-ol 100 mg vs both

Compound	synergism with grandlure (0.8 mg) in competition with grandlure (0.8 mg) alone (Boll Weevils [1])	Response in impulses/initial 500 msec, Cell #1 [2] [impulses/initial 500 msec]	Response in impulses/initial 500 msec, Cell #2 [2] [impulses/initial 500 msec]	Response in impulses/initial 500 msec, Cell #3 [2] [impulses/initial 500 msec]	Response in impulses/initial 500 msec, Cell #4 [2] [impulses/initial 500 msec]	also measured
CCC/C=C\CO [cis-2-hexen-1-ol]	no synergism	–	–	–	–	–
CCCCCCO [1-hexanol]	effective synergists	11	30	42	–	% Total (Boll Weevils [3]; [5]): 0%; Mean Trap Capture (Boll Weevils [3]; [5]): 0 A; activity alone in competition with the other treatments (Boll Weevils [3]): relatively inactive; captures of bark beetles in traps when released with multilure, relative to the pheromone alone (Scolytus multistriatus; 10 mg each): increased; Mean % Trap Capture (Scolytus multistriatus; hexanal 10 mg, 1-hexanol 10 mg, multilure, alone or combined, 4-wk test period): 0a %
CCCCCCCCC=O [nonanal]	–	2	0	0	4	–
C=C1CC/C=C(\C)CC[C@@H]2[C@@H]1CC2(C)C [β-caryophyllene]	–	2	2	0	1	–
CCCCCCC=O [heptanal]	–	1	0	0	16	–
CC/C=C\CCO [cis-3-hexen-1-ol]	effective synergists	–	–	–	–	% Total (Boll Weevils [3]; [6]): 0%; Mean Trap Capture (Boll Weevils [3]; [6]): 0 B; activity alone in competition with the other treatments (Boll Weevils [3]): relatively inactive
CCC/C=C/C=O [trans-2-hexenal]	no significant difference	27	24	1	38	response of female flies to male odor plus the green leaf odor relative to male odor alone (female C. capitata): enhanced response; degradation under field conditions [4]: in part been degraded
CC(C)=CCC/C(C)=C\CO [nerol]	–	3	4	8	11	–
C=CC(=C)CCC=C(C)C [myrcene]	–	2	1	1	3	–
